The assay addresses AT2 receptor (Homo sapiens (Human), UniProt P50052). The assay is described as follows: AT2 Receptor Binding. Conditions: HEK293 AT2 receptor transient cell membranes, [125I]-CGP42112A. Here is the method: 1. Trypsin-EDTA (for Preparation of 100 mL)
• Dissolve trypsin in 2% EDTA and PBS completely; sterilize the solution by passing through a […] membrane filter; store at 4° C.
2. DMEM Medium (for Preparation of 1 L) • The powder was dissolved into 950 mL of distilled water with gentle stirring until the solution becomes clear. • Add. NaHCO3 1.176 g for DMEM medium. • Adjust pH of medium to 0.2˜0.3 below final working pH using 1 M NaOH or 1 M • HCl. Add slowly with stirring. • Dilute to 1 liter with ddH2O. • Sterilize the medium immediately by filtration. • Store at 4° C.
3. TE Buffer • 20 mM Tris-HCl, pH 7.4, • 5 mM EDTA
4. Binding Assay Buffer • 50 mM Hepes, pH 7.4 • 5 mM MgCl2 • 1 mM CaCl2 • 0.2% BSA
5. Wash Buffer • 50 mM Hepes, pH 7.4 Procedures for HEK293AT2 Receptor Transient Cell Transfection • Cells were plated into 150 mm dish at 50% density for transient transfection. Cells were ready for transfection after overnight incubation (the confluence reaches around 80%). • 75 μL Lipofectamine™2000 diluted in 6.25 mL OptiMEM I Reduced Serum Medium, was mixed gently, and incubated at room temperature for 5 minutes. 50 μg expression plasmid DNA diluted in 6.25 mL OptiMEM I Reduced Serum Medium without serum was mixed gently. • After the 5 minute incubation, the diluted DNA was combined with the diluted Lipofectamine™2000 (total volume is 12.5 mL). The mixture was mixed gently and incubated for 30 minutes at room temperature to allow the DNA-Lipofectamine™2000 complexes to form. • The 12.5 mL DNA-Lipofectamine™2000 complexes were added into the 150 mm dish and mixed gently by rocking the dish back and forth. • The cells were incubated at 37° C. with 5% CO2 for 48 hours. Cells were collected and stored frozen at −80° C. Procedures for HEK293AT2 Receptor Cell Membrane Preparation • Frozen HEK293AT2 receptor (transient transfected) cells were homogenized in ice cold TE buffer for 10s. • The homogenate was centrifuged at 25,000 g for 30 minutes. • The pellet was resuspended in ice cold tissue buffer. • Protein concentrations were determined using Bradford assay method with BSA as standard. • The membrane protein was frozen under −80° C. Compound Preparation
Solutions of all compounds were prepared bymicroplate liquid handling equipment such as Janus or Precision 2000. Compounds, dissolved in DMSO were stored in a Freezer. Compounds were prepared from 30 mM in 100% DMSO.
Step 1: Dose Plate Preparation (96 Well Plate)
• Add the 3 μL [30 mM] compound stock to column 1 on the plate. • Add 15 μL of 100% DMSO to column 1. • Add 10.81 μL of 100% DMSO to column 2-12. • Transfer 5 μL from column 1 into column 2 (half log dilution). • Transfer 5 μL from column 2 into column 3 (half log dilution). • Transfer 5 μL from column 3 into column 4 (half log dilution). • Transfer 5 μL from column 4 into column 5 (half log dilution). • Transfer 5 μL from column 5 into column 6 (half log dilution). • Transfer 5 μL from column 6 into column 7 (half log dilution). • Transfer 5 μL from column 7 into column 8 (half log dilution). • Transfer 5 μL from column 8 into column 9 (half log dilution). • Transfer 5 μL from column 9 into column 10 (half log dilution) • Transfer 5 μL from column 10 into column 11 (half log dilution) • Transfer 5 μL from column 11 into column 12 (half log dilution).
All the compounds were diluted using Precision 2000 microplate liquid handling equipment. The top concentration of compound was 5 mM with 100% DMSO.
Step 2: Working Plate Preparation (96 Well Plate)
• Compounds were diluted 50-fold with buffer. • 49 μL buffer was added to the well of 96 well plate. • 1 μL compound solution from dose plate was transferred to the corresponding well of working plate. • The top concentration of compound was 100 μM with 2% DMSO. Step 3: Assay Plate Preparation (96 Well Plate)
15 μL of compound solution was transferred from each well of working plate to the well of assay plate by Janus.
Chain of AT2 receptor (P50052 whole entry, species assumed): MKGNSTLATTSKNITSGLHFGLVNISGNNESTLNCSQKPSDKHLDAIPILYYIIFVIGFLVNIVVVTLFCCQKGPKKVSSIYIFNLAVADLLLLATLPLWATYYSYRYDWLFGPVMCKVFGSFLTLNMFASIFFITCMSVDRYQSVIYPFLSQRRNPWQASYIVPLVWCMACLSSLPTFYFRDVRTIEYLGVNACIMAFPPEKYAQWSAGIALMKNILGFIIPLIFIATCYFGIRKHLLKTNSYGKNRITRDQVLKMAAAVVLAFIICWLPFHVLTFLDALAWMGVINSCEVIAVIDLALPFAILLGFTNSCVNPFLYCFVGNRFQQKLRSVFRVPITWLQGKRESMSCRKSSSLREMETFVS
Broadly, the IC50 is the concentration that gives 50% inhibition. A high value points to weaker potency in that assay. `CN(CCCc1ccccc1)[C@H]1C[C@@H](C(=O)O)N(C(=O)C(c2ccccc2)C2CCCCC2)C1` (stereo partly drawn) [Compound 62, (2S,4S)-1-(2-cyclohexyl-2-phenylacetyl)-4-(methyl(3-phenylpropyl)amino)pyrrolidine-2-carboxylic acid] came in with an IC50 of 540 nM.
As for `O=C1NCC2(CCN([C@H]3C[C@@H](C(=O)O)N(C(=O)C(c4ccccc4)c4ccccc4)C3)CC2)C1c1ccccc1` (stereo partly drawn) [Compound 65, (2S,4S)-1-(2,2-diphenylacetyl)-4-(3-oxo-4-phenyl-2,8-diazaspiro[4,5]decan-8-yl)pyrrolidine-2-carboxylic acid], the figure is 1600 nM; as for `O=C(O)[C@@H]1C[C@H](N2CCC3(CC2)C(=O)NC3c2ccccc2)CN1C(=O)C(c1ccccc1)c1ccccc1` (stereo partly drawn) [Compound 75, (2S,4S)-1-(2,2-diphenylacetyl)-4-(1-oxo-3-phenyl-2,7-diazaspiro[3,5]nonan-7-yl)pyrrolidine-2-carboxylic acid], 3830 nM; as for `O=C(O)[C@@H]1C[C@H](N2CCC[C@H]3CN(Cc4ccccc4)C[C@H]32)CN1C(=O)C(c1ccccc1)c1ccccc1` [Compound 84], 75.8 nM.
Under `O=C(O)[C@@H]1C[C@H](N2CCC[C@@H]3CN(Cc4ccccc4)C[C@@H]32)CN1C(=O)C(c1ccccc1)c1ccccc1` [Compound 85, (2S,4S)-4-((4aR,7aR)-6-benzoctahydro-1H-pyrrolo[3,4-b]-pyridin-1-yl)-1-(2,2-diphenylacetyl)pyrrolidine-2-carboxylic acid] stands 103 nM; under `O=C(O)[C@@H]1C[C@H](N2CC[C@@H](c3ccccc3)C2)CN1C(=O)C(c1ccccc1)c1ccccc1` [Compound 86], 817 nM.
As for `O=C(O)[C@@H]1C[C@H](N2CC[C@H](c3ccccc3)C2)CN1C(=O)C(c1ccccc1)c1ccccc1` [Compound 87], the figure is 43.6 nM.
`CN(CCCCc1ccccc1)[C@H]1C[C@@H](C(=O)O)N(C(=O)C(c2ccccc2)c2ccccc2)C1` [Compound 90, (2S,4S)-1-(2,2-diphenylacetyl)-4-(methyl(4-phenylbutyl)-amino)pyrrolidine-2-carboxylic acid] registered an IC50 of 64.2 nM.
In turn, `CN(CCCc1ccc(F)cc1)[C@H]1C[C@@H](C(=O)O)N(C(=O)C(c2ccccc2)c2ccccc2)C1` [Compound 91, (2S,4S)-1-(2,2-diphenylacetyl)-4-((3-(4-fluorophenyl)-propyl)(methyl)amino)pyrrolidine-2-carboxylic acid] yielded a concentration for half-maximal inhibition (IC50) of 12 nM.
Under `COc1ccc(CCCN(C)[C@H]2C[C@@H](C(=O)O)N(C(=O)C(c3ccccc3)c3ccccc3)C2)cc1C` [Compound 92, (2S,4S)-1-(2,2-diphenylacetyl)-4-((3-(4-methoxy-3-methylphenyl)propyl)(methyl)amino)pyrrolidine-2-carboxylic acid] stands 134 nM; under `CN(CCCc1cccnc1)[C@H]1C[C@@H](C(=O)O)N(C(=O)C(c2ccccc2)c2ccccc2)C1` [Compound 93], 126 nM; under `O=C(CCc1ccccc1)N[C@H]1C[C@@H](C(=O)O)N(C(=O)C(c2ccccc2)c2ccccc2)C1` [Compound 96, (2S,4S)-1-(2,2-diphenylacetyl)-4-(3-phenylpropanamido)-pyrrolidine-2-carboxylic acid], 2250 nM.
The compound `CN(C(=O)CCc1ccccc1)[C@H]1C[C@@H](C(=O)O)N(C(=O)C(c2ccccc2)c2ccccc2)C1` [Compound 97, (2S,4S)-1-(2,2-diphenylacetyl)-4-(N-methyl-3-phenylpropanamido)pyrrolidine-2-carboxylic acid] showed an IC50 of 458 nM. This IC50 is about 4.9-fold lower than that of the compound before.
Under `CS(=O)(=O)N(CCCc1ccccc1)[C@H]1C[C@@H](C(=O)O)N(C(=O)C(c2ccccc2)c2ccccc2)C1` [Compound 99, (2S,4S)-1-(2,2-diphenylacetyl)-4-(N-(3-phenylpropyl)-methylsulfonamido)pyrrolidine-2-carboxylic acid] stands 536 nM; under `O=C(O)[C@@H]1C[C@H](n2nncc2-c2ccccc2)CN1C(=O)C(c1ccccc1)c1ccccc1` [Compound 100, (2S,4S)-1-(2,2-diphenylacetyl)-4-(5-phenyl-1H-1,2,3-triazol-1-yl)pyrrolidine-2-carboxylic acid], 18 nM.
Under `O=C(O)[C@@H]1C[C@H](n2nncc2Cc2ccccc2)CN1C(=O)C(c1ccccc1)c1ccccc1` [Compound 101, (2S,4S)-4-(5-benzyl-1H-1,2,3-triazol-1-yl)-1-(2,2-diphenylacetyl)pyrrolidine-2-carboxylic acid] stands 400 nM; under `O=C(O)[C@@H]1C[C@H](N2C(=O)COC[C@@H]2Cc2ccccc2)CN1C(=O)C(c1ccccc1)c1ccccc1` [Compound 102, (2S,4S)-4-((S)-3-benzyl-5-oxomorpholino)-1-(2,2-diphenylacetyl)pyrrolidine-2-carboxylic acid], 499 nM.
`O=C(O)[C@@H]1C[C@H](OCCCc2ccc(F)cc2)CN1C(=O)C(c1ccccc1)c1ccccc1` [Compound 104, (2S,4S)-1-(2,2-diphenylacetyl)-4-(3-(4-fluorophenyl)-propoxy)pyrrolidine-2-carboxylic acid]: the IC50 was found to be 1320 nM.
Under `COc1ccc(C#CCN(C)[C@H]2C[C@@H](C(=O)O)N(C(=O)C(c3ccccc3)c3ccccc3)C2)cc1C` [Compound 105, (2S,4S)-1-(2,2-diphenylacetyl)-4-((3-(4-methoxy-3-methylphenyl)prop-2-yn-1-yl)(methyl)amino)pyrrolidine-2-carboxylic acid] stands 2490 nM; under `O=C(O)[C@@H]1C[C@H](CCCCc2ccccc2)CN1C(=O)C(c1ccccc1)c1ccccc1` [Compound 106, (2S,4S)-1-(2,2-diphenylacetyl)-4-(4-phenylbutyl)-pyrrolidine-2-carboxylic acid], 426 nM.
`O=C(O)[C@@H]1C[C@H](c2sccc2-c2ccccc2)CN1C(=O)C(c1ccccc1)c1ccccc1` [Compound 107, (2S,4S)-1-(2,2-diphenylacetyl)-4-(3-phenylthiophen-2-yl)-pyrrolidine-2-carboxylic acid] yielded an IC50 of 461 nM.
As for `CN(C)S(=O)(=O)NC(=O)[C@@H]1C[C@H](OCCCc2ccccc2)CN1C(=O)C(c1ccccc1)c1ccccc1` [Compound 112, (2S,4S)—N—(N,N-dimethylsulfamoyl)-1-(2,2-diphenylacetyl)-4-(3-phenylpropoxy)pyrrolidine-2-carboxamide], the figure is 255 nM; as for `CN(CCCc1ccc(F)cc1)[C@H]1C[C@@H](C(=O)NS(=O)(=O)N(C)C)N(C(=O)C(c2ccccc2)c2ccccc2)C1` [Compound 114, (2S,4S)—N—(N,N-dimethylsulfamoyl)-1-(2,2-diphenylacetyl)-4-((3-(4-fluorophenyl)propyl)(methyl)amino)pyrrolidine-2-carboxylic acid], 17.1 nM; as for `O=C(O)[C@@H]1C[C@H](N2CCC3(CCOC(=O)N3Cc3ccccc3)C2)CN1C(=O)C(c1ccccc1)c1ccccc1` (stereo partly shown) [Compound 115], 321 nM.
As for `CN(CC#Cc1ccccc1)[C@H]1C[C@@H](C(=O)O)N(C(=O)C(c2ccccc2)c2ccccc2)C1` [Compound 116, (2S,4S)1-(2,2-diphenylacetyl)-4-(methyl(3-phenylprop-2-yn-1-yl)amino)pyrrolidine-2-carboxylic acid], the figure is 650 nM.

For the origin of these results see patent US9624243B2, “Heterocyclic compounds and methods of their use” (Novartis AG, priority 2012, dated 2017).
